Results published in patent US4567169A, “Nitrosourea substituted phosphonates and pharmaceutical use” (priority 1982, dated 1986).

Key:
[1] = test system: pyruvic glutamic transaminase; experiment: hepatic toxicity (Wroblewski's method), pyruvic glutamic transaminase activity in serum; assay type: in vivo, Long Evans rats
Experimental: The hepatic toxicity is assessed according to Wroblewski's method by measuring the pyruvic glutamic transaminase activity contained in the serum from Long Evans rats treated with an intraperitoneal injection of 25 mg/kg of BCNU or with equipotential doses of the compounds according to the invention.

[2] = test system: tumour-bearing mice (tumorous cells inoculated by intraperitoneal or intramuscular route); experiment: capacity to increase the life-span of mice bearing tumorous cells (NCI protocols, Geran et al.); assay type: in vivo; settings: 5 mg/kg
Experimental: The compounds according to the invention are tested by their capacity to increase the life-span of mice bearing tumorous cells inoculated by intraperitoneal or intramuscular route in accordance with the protocols edicted by the National Cancer Institute (U.S.A.) and published by R. I. GERAN et al. in Cancer Chemotherapy Reports 1972, part III, Vol. 3 (2), 1-87.
Given per os, these compounds increase the life-span of tumor-bearing animals. The rate of effectiveness of the active doses per os over the active dose by intraperitoneal route is greater for the compounds according to the invention than for the reference products (F. SPREAFICO et al. in Nitrosoureas: current status and new developments, A. W. PRESTAYKO et al. editors, 1981, Academic Press (New York); Experimental Evaluation of Antitumor Drugs in the USA and USSR and clinical correlations; National Cancer Institute Monograph No. 55; National Institutes of Health USA 1980).

pulmonary metastases = experiment: antimetastatic capacity: reduction in number and weight of pulmonary metastases developed after intramuscular inoculation of carcinoma cells; assay type: in vivo; settings: 10 mg/kg as a curative treatment for 9 days
Experimental: The antimetastatic capacity of the compounds of the present invention is measured by the reduction, compared with untreated animals, in the number and weight of pulmonary metastases developed after intramuscular inoculation of carcinoma cells.

Row | SMILES | hepatic toxicity ([1]; intraperitoneal injection of 25 mg/kg of BCNU or equipotential doses of the compounds) | long-term survivors [2] | formation of metastases (pulmonary metastases) | serum pyruvic glutamic transaminase level ([1]; 25 mg/kg, Long Evans rats)
1 | O=NN(CCCl)C(=O)NCCCl [BCNU, N-N'-bis(2-chloroethyl)-N-nitrosourea, reference compound] | notable hepatic toxicity | – | – | –
2 | CCOP(=O)(OCC)C(C)NC(=O)N(CCCl)N=O (stereo not shown) [Example 4, 1-[N-(2-chloroethyl)-N-nitrosoureido]ethylphosphonic acid diethyl ester] | – | inducing long-term survivors | prevents the formation of metastases | does not lead to an increase in the enzyme level outside the range usually found in untreated rats
